Results on ten molecules are retold here after PubChem BioAssay (NCI).

Where “and” joins values, the source holds several entries; their conditions need not be identical. Equal entries are not always repeated.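 1) Cells in 96-well plates. 2) Compound, 48 h, 5 concentrations. 3) Linear interpolation between surrounding doses. 4) Unreached endpoint = highest concentration. Here, GI50 denotes the concentration required for 50% inhibition of growth. Definition used: TGI = concentration required for complete inhibition of growth.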

What all share (experiment): NCI tumour cell line growth inhibition, 48 h
Test [1] has as its system PC-3 prostate.
The subject of test [2] is SF-539 CNS.
The test system of test [3] is SF-268 CNS.
In test [4] the test system is NCI/ADR-RES ovarian.
Test [5] deals with HCC-2998 colon.
Test [6] relates to SW-620 colon.
For test [7], the system named is MCF7 breast.
The test system of test [8] is NCI-H460 lung.
Test [9] has as its system HCT-15 colon.
The subject of test [10] is SK-MEL-28 melanoma.

With `Cc1ccccc1NC(=O)c1cc2ccccc2cc1O`, the GI50 in test [1] was 2.7 µM; in [2], 3.55 µM; in test [3], 3.68 µM; in test [4] it was 2.85 µM; in test [5], 4.4 µM; in [6] it was 3.96 µM. Besides, the GI50 in test [7] was 3.46 µM; in test [8] it was 2.77 µM; in [9], 3.84 µM; in [10], 5.09 µM. Further, the TGI is 8.81 µM in [1]; 24.1 µM in test [2]; more than 100 µM in test [3]; 8.79 µM in test [4]; 26.2 µM in test [5]; more than 100 µM in test [6]. Further, the TGI in [7] was 37.1 µM; in test [8] it was 7.29 µM; in test [9], more than 100 µM; in [10] it was more than 100 µM.
`CCN(CC)CCC(=O)O[C@H]1CC[C@H](CC(C)[C@H]2CC(=O)C(C)C=C(C)[C@H](OC(=O)CCN(CC)CC)C(OC)C(=O)[C@@H](C)CC(C)/C=C/C=C/C=C(C)C(OC)CC3CC[C@H](C)[C@](O)(O3)C(=O)C(=O)N3CCCCC3C(=O)O2)CC1OC` (some centres undefined): the GI50 in [1] is 1.22 µM; in test [3], 1.16 µM; in test [5], 1.03 µM; in test [6], 1.37 µM; in test [8], 0.292 µM and 1.34 µM; in test [9], 0.0922 µM. The TGI in [1] is 2.57 µM and 2.4 µM; in test [2] it was 1.99 µM and 1.81 µM; in test [3], 3.06 µM and 3.99 µM; in test [4], 8.13 µM and 6.58 µM; in [5], 2.29 µM and 2.04 µM; in test [6], 3.66 µM and 2 µM. Besides, the TGI was 3.54 µM and 3.78 µM in test [7]; 3.48 µM and 2.69 µM in test [8]; 4.46 µM and 3.84 µM in test [9]; 1.95 µM in test [10].
On to `O=C1C=C(OCCCl)C(=O)c2c(O)ccc(O)c21`, for which the GI50 in test [1] was 2.67 µM; in [2], 1.58 µM; in test [3], 3.98 µM; in test [4] it was 9.41 µM; in test [5], 1.12 µM; in [6] it was 0.296 µM and 1.56 µM. In addition, the GI50 in test [7] was 0.399 µM; in test [8] it was 2.15 µM; in test [9], 1.4 µM; in test [10], 2.08 µM. Also, the TGI in test [1] is 4.32 µM and 10.1 µM; in test [2] it was 2.82 µM and 2.93 µM; in [3] it was 2.6 µM and 15.3 µM; in test [5] it was 3.03 µM and 2.47 µM; in [6], 1.15 µM and 3.85 µM; in test [7], 0.472 µM and 1.75 µM. The TGI was 2.05 µM and 4.67 µM in test [8]; 0.433 µM and 3.15 µM in [9].
Turning to `O=c1[nH]nc(-c2ccccc2)c2c(-c3ccccc3)onc12`, the GI50 is 2.12 µM in test [1]; 0.351 µM in test [2]; 0.969 µM in test [3]; 0.331 µM in test [4]; 39.7 µM in test [5]; 0.319 µM in test [6]. Besides, the GI50 in [7] is 0.368 µM; in test [8], 0.383 µM; in test [9], 0.554 µM; in [10], 0.793 µM. For the same molecule, the TGI in test [1] was more than 100 µM; in test [2], 1.79 µM; in test [3], more than 77.8 µM; in test [4], more than 100 µM; in test [5], more than 96.3 µM; in test [6] it was more than 100 µM. Also, the TGI was more than 100 µM in test [7], more than 62.6 µM in test [8], more than 100 µM in test [9] and more than 100 µM in test [10].
`COc1cc(-c2oc3c(OC)c(O)cc(O)c3c(=O)c2OC)ccc1O`: the TGI in test [1] was more than 74.9 µM; in [2], more than 50.2 µM; in [3], more than 23.3 µM; in test [4], more than 83.5 µM; in test [5] it was 50.4 µM; in test [6] it was more than 100 µM. Also, the TGI in test [7] was more than 75.6 µM; in [8], more than 93.5 µM; in test [9], more than 100 µM; in [10], more than 100 µM.
With `CN(C)C(=S)SCC(N)=O`, the TGI in test [1], in [2], in [3], in [4], in [5] and in test [6] was more than 100 µM in each case. Moreover, the TGI in [7], in test [8], in test [9] and in [10] was more than 100 µM in each case.
With `Cn1c2ccccc2c2[nH]c3ccccc3c(=O)c21`, the TGI in [1], in test [2], in [3], in test [4], in [5] and in [6] was more than 100 µM throughout. Besides, the TGI in [7], in test [8], in test [9] and in test [10] was more than 100 µM throughout.
Turning to `Cc1cn(Cc2ccccc2CCl)c(=O)n(Cc2ccccc2CCl)c1=O`, the GI50 in [1] was 1.83 µM; in test [2], 2.47 µM; in test [3] it was 2.32 µM; in [4], 2.22 µM; in test [5], 1.5 µM; in [6] it was 2.14 µM. For the same molecule, the GI50 in test [7] is 1.36 µM; in test [8], 1.98 µM; in test [9], 1.96 µM; in [10], 2.21 µM. In addition, the TGI in test [1] stood at 3.91 µM; in test [2], 5.65 µM; in [3], 5.99 µM; in test [4], 6.36 µM; in test [5], 2.95 µM; in test [6], 6.03 µM. Also, the TGI stood at 4.77 µM in [7], 4.67 µM in test [8], 4.43 µM in test [9] and 5.49 µM in [10].
For the molecule `CN(C)CC1=Nc2cccc3cccc(c23)N1`, the TGI was 32.3 µM in test [1]; 35.9 µM in [2]; 33.4 µM in [3]; more than 100 µM in test [4]; 32.3 µM in test [5]; more than 100 µM in [6]. Moreover, the TGI in test [7] is 30.8 µM; in test [8], more than 100 µM; in test [9], 77.5 µM; in test [10], 49.1 µM.
Take `CC(=O)n1c(-c2ccc(Cl)c(Cl)c2)cn(-c2ccc(Cl)cc2)c1=O`: the GI50 in [1] is 26.6 µM; in test [2], 14.1 µM; in test [3], 23.5 µM; in test [4], 35.2 µM; in test [5], 91.5 µM; in test [6] it was 30.9 µM. For the same molecule, the GI50 is 30.8 µM in test [7], 30.8 µM in test [8], 63.7 µM in test [9] and more than 100 µM in test [10]. Also, the TGI in test [1] was more than 100 µM; in [2], 31.9 µM; in test [3], more than 100 µM; in [4], more than 100 µM; in [5], more than 100 µM; in [6], more than 100 µM. In addition, the TGI in [7], in test [8], in [9] and in test [10] was more than 100 µM throughout.
